Reference: patent US11497713B2, “Combination taxoid nanoemulsion with immunotherapy in cancer” (TargaGenix, Inc., priority 2017, dated 2022)

Tests used:
Panc02 cells = test: Cell viability (MTT assay) in Panc02 cells; type: cell-based, murine; conditions: 96 hours of drug exposure
Experimental: The murine pancreatic cancer cell line Panc02, which is syngeneic to C57Bl/6 mice was a kind gift from Professor Michael A. Hollingsworth, UNMC, Omaha, Nebr. Panc02 cells were grown in 75 cm^2 cell culture flasks and maintained in DMEM medium supplemented with 10% fetal bovine serum (FBS), L-glutamine and penicillin (100 U/ml)/streptomycin (100 μg/ml) (both from Gibco Life Technologies, Carlsbad, Calif., USA). Cells were incubated at 37° C. in a humidified atmosphere containing 5% CO2.
To see cytotoxic effect of different drugs and nanoemulsion formulation, 5000 cells were seeded in each well of the 96-well plate for overnight at 37° C. in a humidified atmosphere containing 5% CO2. Various drugs (Paclitaxel, Abraxane, Gemcitabine and solution and nanoemulsion of DHA-SBT-1214) were diluted at concentrations ranging from 0 nM, 0.01 nM, 0.1 nM, 1 nM, 10 nM, 100 nM, 1000 nM to 10000 nM and Panc02 cells treated with these concentrations for 96 hours. After incubation, cells were treated with 3-(4,5-dimethylthiazol-2-yl)-2,5-diphenyltetrazolium bromide ([…]). MU crystals were dissolved with DMSO and plates were read at 570 nm absorbance using a BioTek Synergy HTX Multi-Mode Microplate Reader.
Cells were seeded at 0.5×10^6 cells/well in 6-well plates for overnight at 37 C in a humidified atmosphere containing 5% CO2. […] The percentage maximal response is shown as a function of anti-cancer agents when administered to Panc02 cells. The cell viability was measured by the MTT assay after 96 hours of incubation at 37° C. Data represent mean±standard deviation (n=3). Significant differences are indicated as follows: *p<0.05, and **p<0.01. The expression level of PD-L1 was determined using flow cytometry as follows. […] The cells were washed once with 3% BSA/PBS and analyzed by flow cytometer on a FACSCalibur flow cytometer and CellQuest™ Pro version 6.0 software (both from Becton-Dickinson and Co.). […]

Panc02 induced tumor = test: Subcutaneous Panc02 syngeneic pancreatic cancer model, single and combination therapy; type: in vivo, C57Bl/6 mice
Experimental: In addition to evaluation of efficacy in CSC-rich PDAC models, the efficacy of NE-DHA-SBT-1214 in combination with antibody targeted to PD-L1 immune checkpoint inhibitor was examined in subcutaneous (subQ) Panc-2 syngeneic pancreatic cancer model developed in […] mice. After transplantation of the Panc-2 cells, the mice were divided into groups for weekly treatment by intravenous administration of vehicle (as control), gemcitabine (at 120 mg/kg), ABRAXANE® (at 120 mg/kg) and NE-DHA-SBT-1214 (at 10 and 25 mg/kg) as either single in combination with either IgG control or anti-PD-L1 antibody (200 μg/dose). The antibodies were administered intraperitoneally. The treatment started two weeks after tumor transplantation when tumor mass became palpable at 50 to 150 mm^3 in volume.
All experiments involving the use of animals were carried out in strict accordance with the recommendations in the guide for the care and use of laboratory animals of the National Institutes of Health, via a research protocol that was approved by Northeastern University Institutional Animal Care and Use Committee (IACUC). […] Tumor development was monitored twice weekly. The tumor size was measured with a caliper on a weekly basis and approximate tumor volumes determined using the formula 0.5ab^2, where b is the smaller of the two perpendicular diameters. […]

[1] = test system: PD-L1 surface expression in Panc02 cells; test: PD-L1 surface protein expression by flow cytometry; type: cell-based, murine; conditions: IC50 concentration, 48 hours
Experimental: Cells were seeded at 0.5×10^6 cells/well in 6-well plates for overnight at 37 C in a humidified atmosphere containing 5% CO2. […] The percentage maximal response is shown as a function of anti-cancer agents when administered to Panc02 cells. The cell viability was measured by the MTT assay after 96 hours of incubation at 37° C. Data represent mean±standard deviation (n=3). Significant differences are indicated as follows: *p<0.05, and **p<0.01. The expression level of PD-L1 was determined using flow cytometry as follows. Briefly, cells harvested from in vitro cultures were washed twice with 3% BSA/PBS and then incubated with rat anti-PD-L1 or isotype control antibodies ([…], BioXcell, West Lebanon, N.H., USA) for 30 minutes at 4 C, then washed three times and incubated with anti-rat AlexaFluor 488 conjugated Antibody. The cells were washed once with 3% BSA/PBS and analyzed by flow cytometer on a FACSCalibur flow cytometer and CellQuest™ Pro version 6.0 software (both from Becton-Dickinson and Co.).
Panc02 cells were treated with gemcitabine, Abraxane™, paclitaxel and DHA-SBT-1214 both in solution and nanoemulsion for 48 hours to determine whether they can induce PD-L1 protein expression. PD-L1 expression levels on tumor cells were determined by flow cytometry and is expressed as the A mean fluorescence intensity (ΔMFI; MFI using anti-PD-L1 subtracted from the isotype control). […] PD-L1 expression was analyzed using flow cytometry and is presented as ΔMFI (MFI using anti-PD-L1 subtracted from the isotype control). Data represent the mean±standard deviation of at least 3 independent experiments; *p<0.05, **p<0.01, ***p<0.001. As reported previously, PD-L1 level enhanced in pancreatic tumor tissues compared to in vitro growing cells as shown in FIG. 8.

prostate CD133+ cells = test: Prostate cancer stem cells under stemness-promoting culture conditions; type: cell-based
Experimental: In studies with DHA-SBT-1214 and prostate cancer stem cells, Applicants previously determined that low concentrations of DHA-SBT-1214 (0.1-1 μM) induced up to 80-90% death of the highly tumorigenic and highly drug-resistant prostate CD133^+ cells maintained under stemness-promoting culture conditions.

SMILES | IC50 (Panc02 cells; Mus musculus) | tumor growth suppression (Panc02 induced tumor; 120 mg/kg weekly ×3) | PD-L1 surface expression (ΔMFI) [1] | IC50 (Panc02 cells) | cell death (prostate CD133+ cells; 0.1-1 μM) | expression of pro-apoptotic proteins p53 and p21 (prostate CD133+ cells; previously absent expression) | efficacy compared to abraxane at 120 mg/kg (Panc02 induced tumor; 10 mg/kg)
Nc1ccn([C@@H]2O[C@H](CO)[C@@H](O)C2(F)F)c(=O)n1 [gemcitabine] | 154 nM | moderate effect | upregulated | – | – | – | –
CC/C=C\C/C=C\C/C=C\C/C=C\C/C=C\C/C=C\CCC(=O)O[C@@H](C(=O)O[C@H]1C[C@@]2(O)[C@@H](OC(=O)c3ccccc3)[C@@H]3[C@]4(OC(C)=O)CO[C@@H]4C[C@H](O)[C@@]3(C)C(=O)[C@H](OC(=O)C3CC3)C(=C1C)C2(C)C)[C@H](C=C(C)C)NC(=O)OC(C)(C)C [DHA-SBT-1214, Docosahexaenoic acid conjugate of SBT-1214] | – | – | upregulated | 262 nM | 80-90% | significant up-regulation | superior to abraxane treatment
